Measured values taken from patent US20240067702A1, “LACTAM-MODIFIED P[…]” (DONGBAO PURPLE STAR (HANGZHOU) BIOPHARMACEUTICAL CO., LTD., priority 2020, published 2024).
*1 amine or outer side, *2 acyl side, *3 side chain or, on linkers, in order; H or OH if unused. Where a SMILES comes first, the peptide text is derived from it. Bridges are numbered along the chain shown (N, C = ends). Side-chain parts run from the residue outwards. [ ]: non-standard residue; d: D form. The star is where a group is joined. C20 diacid = O=C(O)CCCCCCCCCCCCCCCCCCC(=O)*; C18 diacid = O=C(O)CCCCCCCCCCCCCCCCC(=O)*; γGlu = O=C(O)[C@H](CCC(=O)[*:2])N[*:1]; AEEA = NCCOCCOCC(=O)O; Aib = CC(C)(N)C(=O)O

What was measured:
[1] = molecular target: T1, GIPR (Homo sapiens, UniProt P48546); experiment: GIPR agonist activity test in vitro (cAMP assay); type: cell-based; conditions: CHO host cell
T1 construct: host or cells: CHO
T1 sequence (P48546 22-466): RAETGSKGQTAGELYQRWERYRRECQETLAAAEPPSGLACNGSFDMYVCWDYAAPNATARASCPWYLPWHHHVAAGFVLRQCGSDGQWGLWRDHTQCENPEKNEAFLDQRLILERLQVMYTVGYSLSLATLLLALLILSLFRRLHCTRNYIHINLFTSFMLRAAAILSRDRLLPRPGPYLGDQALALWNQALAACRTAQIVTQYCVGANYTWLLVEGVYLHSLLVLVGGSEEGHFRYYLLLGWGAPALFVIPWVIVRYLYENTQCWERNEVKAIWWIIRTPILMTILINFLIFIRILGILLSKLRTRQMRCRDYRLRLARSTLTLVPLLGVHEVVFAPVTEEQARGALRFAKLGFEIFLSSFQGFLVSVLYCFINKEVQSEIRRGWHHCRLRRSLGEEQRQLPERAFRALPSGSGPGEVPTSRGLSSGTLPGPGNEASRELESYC
Method: (§1) The cell strains were constructed by Shanghai WuXi AppTec.
(§2) The test compound was serially diluted 4-fold with 10 points. The initial concentration was 30 μM, and the dilution was completed with Bravo.
(§3) 1) 100 nL of the compound was transferred to OptiPlate-384 plate using Echo.
(§4) 7) The GLP-1R/GIPR cell concentration was diluted to 2.0*10^5/mL with the experimental buffer.
(§5) 8) […] of the diluted cell suspension was transferred into the OptiPlate-384 plate.
(§6) 9) The diluted cell suspension was incubated at room temperature for 30 minutes.
(§7) 2) 10 μL of cAMP detection reagent was added.
(§8) 3) The OptiPlate-384 plate was covered with TopSeal-A film and incubated at room temperature for 60 minutes.
(§9) TopSeal-A was removed and read in EnVision.

[2] = molecular target: T2, GLP-1R (Homo sapiens, UniProt P43220); experiment: GLP-1R agonist activity test in vitro (cAMP assay); type: cell-based; conditions: HEK293 host cell
T2 construct: host or cells: HEK293
T2 sequence (P43220 24-463): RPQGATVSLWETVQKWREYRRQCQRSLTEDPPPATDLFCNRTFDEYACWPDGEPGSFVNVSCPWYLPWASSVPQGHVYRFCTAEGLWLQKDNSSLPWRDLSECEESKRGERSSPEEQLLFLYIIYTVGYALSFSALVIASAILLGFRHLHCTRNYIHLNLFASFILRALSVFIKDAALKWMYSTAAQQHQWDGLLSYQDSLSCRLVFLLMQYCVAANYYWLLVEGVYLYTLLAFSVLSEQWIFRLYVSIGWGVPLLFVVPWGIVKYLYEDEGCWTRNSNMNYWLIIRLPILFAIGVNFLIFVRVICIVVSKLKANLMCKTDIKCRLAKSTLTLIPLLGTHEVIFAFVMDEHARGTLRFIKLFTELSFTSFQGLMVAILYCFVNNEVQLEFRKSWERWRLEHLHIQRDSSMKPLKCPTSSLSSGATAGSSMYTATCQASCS
Method: as §1, §2, §3, §4, §5, §6, §7, §8, §9

[3] = GIPR Agonist Activity EC50 (−) 1% HSA, without 1% HSA
[4] = GLP-IR Agonist Activity EC50 (−) 1% HSA, without 1% HSA

Row | SMILES | EC50 ([1]; GIPR Agonist Activity EC50 (+) 1% HSA, with 1% HSA) [nM] | EC50 [1, 3] [nM] | EC50 ([2]; GLP-IR Agonist Activity EC50 (+) 1% HSA, with 1% HSA) [nM] | EC50 [2, 4] [nM]
1 | CC[C@H](C)[C@H](NC(=O)[C@@H]1CCCCNC(=O)CC[C@H](NC(=O)[C@@H](NC(=O)[C@H](CO)NC(=O)[C@H](Cc2ccc(O)cc2)NC(=O)[C@H](CC(=O)O)NC(=O)[C@H](CO)NC(=O)[C@@H](NC(=O)[C@H](Cc2ccccc2)NC(=O)[C@@H](NC(=O)CNC(=O)[C@H](CCC(=O)O)NC(=O)C(C)(C)NC(=O)[C@@H](N)Cc2ccc(O)cc2)[C@@H](C)O)[C@@H](C)O)[C@@H](C)CC)C(=O)N[C@@H](CC(C)C)C(=O)N[C@@H](CC(=O)O)C(=O)N1)C(=O)N[C@@H](C)C(=O)N[C@@H](CCC(N)=O)C(=O)N[C@@H](CCCCNC(=O)COCCOCCNC(=O)COCCOCCNC(=O)CC[C@H](NC(=O)CCCCCCCCCCCCCCCCCCC(=O)O)C(=O)O)C(=O)N[C@@H](C)C(=O)N[C@@H](Cc1ccccc1)C(=O)N[C@H](C(=O)N[C@@H](CCC(N)=O)C(=O)N[C@@H](Cc1c[nH]c2ccccc12)C(=O)N[C@@H](CC(C)C)C(=O)N[C@H](C(=O)N[C@@H](C)C(=O)NCC(=O)NCC(=O)N1CCC[C@H]1C(=O)N[C@@H](CO)C(=O)N[C@@H](CO)C(=O)NCC(=O)N[C@@H](C)C(=O)N1CCC[C@H]1C(=O)N1CCC[C@H]1C(=O)N1CCC[C@H]1C(=O)N[C@@H](CO)C(N)=O)[C@@H](C)CC)C(C)C [WX-010] (H-Y[Aib]EGTFTSDYSIELDKIAQK([AEEA-AEEA-γGlu-C20 diacid])AFVQWLIAGGPSSGAPPPS-NH2; lactam 13-16) | 443 | 11.9 | 34 | 0.0345
2 | CC[C@H](C)[C@H](NC(=O)[C@H](CC(C)C)NC(=O)[C@H](Cc1c[nH]c2ccccc12)NC(=O)[C@@H]1CCC(=O)NCCCC[C@H](NC(=O)[C@H](CCC(N)=O)NC(=O)[C@H](C)NC(=O)[C@H](CCCCNC(=O)COCCOCCNC(=O)COCCOCCNC(=O)CC[C@H](NC(=O)CC[C@H](NC(=O)CCCCCCCCCCCCCCCCC(=O)O)C(=O)O)C(=O)O)NC(=O)[C@H](CCCCN)NC(=O)[C@H](CC(=O)O)NC(=O)[C@H](CC(C)C)NC(=O)C(C)(C)NC(=O)[C@@H](NC(=O)[C@H](CO)NC(=O)[C@H](Cc2ccc(O)cc2)NC(=O)[C@H](CC(=O)O)NC(=O)[C@H](CO)NC(=O)[C@@H](NC(=O)[C@H](Cc2ccccc2)NC(=O)[C@@H](NC(=O)CNC(=O)[C@H](CCC(=O)O)NC(=O)C(C)(C)NC(=O)[C@@H](N)Cc2ccc(O)cc2)[C@@H](C)O)[C@@H](C)O)[C@@H](C)CC)C(=O)N[C@@H](C)C(=O)N[C@@H](Cc2ccccc2)C(=O)N[C@@H](C(C)C)C(=O)N1)C(=O)N[C@@H](C)C(=O)NCC(=O)NCC(=O)N1CCC[C@H]1C(=O)N[C@@H](CO)C(=O)N[C@@H](CO)C(=O)NCC(=O)N[C@@H](C)C(=O)N1CCC[C@H]1C(=O)N1CCC[C@H]1C(=O)N1CCC[C@H]1C(=O)N[C@@H](CO)C(N)=O [WX-003] (H-Y[Aib]EGTFTSDYSI[Aib]LDKK([AEEA-AEEA-γGlu-γGlu-C18 diacid])AQKAFVEWLIAGGPSSGAPPPS-NH2; lactam 20-24) | – | 0.3 | – | 0.09
3 | CC[C@H](C)[C@H](NC(=O)[C@H](CC(C)C)NC(=O)[C@H](Cc1c[nH]c2ccccc12)NC(=O)[C@H](CCCCNC(=O)COCCOCCNC(=O)COCCOCCNC(=O)CC[C@H](NC(=O)CCCCCCCCCCCCCCCCCCC(=O)O)C(=O)O)NC(=O)[C@@H](NC(=O)[C@H](Cc1ccccc1)NC(=O)[C@H](C)NC(=O)[C@@H]1CCCCNC(=O)CC[C@H](NC(=O)[C@H](CCCCN)NC(=O)[C@H](CC(=O)O)NC(=O)[C@H](CC(C)C)NC(=O)C(C)(C)NC(=O)[C@@H](NC(=O)[C@H](CO)NC(=O)[C@H](Cc2ccc(O)cc2)NC(=O)[C@H](CC(=O)O)NC(=O)[C@H](CO)NC(=O)[C@@H](NC(=O)[C@H](Cc2ccccc2)NC(=O)[C@@H](NC(=O)CNC(=O)[C@H](CCC(=O)O)NC(=O)C(C)(C)NC(=O)[C@@H](N)Cc2ccc(O)cc2)[C@@H](C)O)[C@@H](C)O)[C@@H](C)CC)C(=O)N[C@@H](C)C(=O)N[C@@H](CCC(N)=O)C(=O)N1)C(C)C)C(=O)N[C@@H](C)C(=O)NCC(=O)NCC(=O)N1CCC[C@H]1C(=O)N[C@@H](CO)C(=O)N[C@@H](CO)C(=O)NCC(=O)N[C@@H](C)C(=O)N1CCC[C@H]1C(=O)N1CCC[C@H]1C(=O)N1CCC[C@H]1C(=O)N[C@@H](CO)C(N)=O [WX-008] (H-Y[Aib]EGTFTSDYSI[Aib]LDKEAQKAFVK([AEEA-AEEA-γGlu-C20 diacid])WLIAGGPSSGAPPPS-NH2; lactam 17-20) | – | 0.32 | – | 0.08
4 | CC[C@H](C)[C@H](NC(=O)[C@H](CO)NC(=O)[C@H](Cc1ccc(O)cc1)NC(=O)[C@H](CC(=O)O)NC(=O)[C@H](CO)NC(=O)[C@@H](NC(=O)[C@H](Cc1ccccc1)NC(=O)[C@@H](NC(=O)CNC(=O)[C@H](CCC(=O)O)NC(=O)C(C)(C)NC(=O)[C@@H](N)Cc1ccc(O)cc1)[C@@H](C)O)[C@@H](C)O)C(=O)NC(C)(C)C(=O)N[C@@H](CC(C)C)C(=O)N[C@@H](CC(=O)O)C(=O)N[C@@H](CCCCN)C(=O)N[C@@H](CCCCNC(=O)COCCOCCNC(=O)COCCOCCNC(=O)CC[C@H](NC(=O)CCCCCCCCCCCCCCCCCCC(=O)O)C(=O)O)C(=O)N[C@@H](C)C(=O)N[C@@H](CCC(N)=O)C(=O)N[C@H]1CCCCNC(=O)CC[C@@H](C(=O)N[C@@H](Cc2c[nH]c3ccccc23)C(=O)N[C@@H](CC(C)C)C(=O)N[C@@H](CC(C)C)C(=O)N[C@@H](C)C(=O)NCC(=O)NCC(=O)N2CCC[C@H]2C(=O)N[C@@H](CO)C(=O)N[C@@H](CO)C(=O)NCC(=O)N[C@@H](C)C(=O)N2CCC[C@H]2C(=O)N2CCC[C@H]2C(=O)N2CCC[C@H]2C(=O)N[C@@H](CO)C(N)=O)NC(=O)[C@H](C(C)C)NC(=O)[C@H](Cc2ccccc2)NC(=O)[C@H](C)NC1=O [WX-007] (H-Y[Aib]EGTFTSDYSI[Aib]LDKK([AEEA-AEEA-γGlu-C20 diacid])AQKAFVEWLLAGGPSSGAPPPS-NH2; lactam 20-24) | – | 0.13 | – | 0.14
